Entries after “also recorded” stand apart in the source; their conditions may differ.
T1: binding of GREM1 to ACVR1C (Homo sapiens, UniProt O60565)
T1 construct: his-tagged full-length GREM1 were purified; His; made in house
T1 sequence (O60565 25-184): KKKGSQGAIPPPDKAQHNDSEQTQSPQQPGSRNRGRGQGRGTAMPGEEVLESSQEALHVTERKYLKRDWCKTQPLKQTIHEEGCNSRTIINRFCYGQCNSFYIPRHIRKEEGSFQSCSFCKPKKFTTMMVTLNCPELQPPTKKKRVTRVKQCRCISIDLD

T2: GREM1 (Homo sapiens (Human), UniProt O60565 25-184, limits assumed)
T2 construct: also called Gremlin1
T2 sequence: T1 sequence (O60565 25-184)

B1: truncated ACVR1C-ECD lacking amino acids 68-113 (A4) (receptor)
chain: ELSPGLKCVCLLCDSSNFTCQTEGACWASVMLTNGKEQVIKSCVSLP

Experiments:
[1] = system: HCT116-luc cells (colorectal liver metastasis); assay: Colorectal liver metastasis model: HCT116-luc cells injected through the spleen, live bioluminescence imaging; type: in vivo; conditions: NOG mice, PLV-GREM1 HCT116-luc cells via spleen, 10 mg/kg by tail vein once every 2 days
Protocol: Grouping: a total of 18 6-week-old NOG mice were taken and randomized into 3 groups 5 days after adaptive feeding: control group (PLV), GREM1 overexpression group (PLV-GREM1) and ACVR1C polypeptide treatment group (PLV-GREM1+ACVR1C peptide), 6/group.
Modeling: HCT116-luc cell suspensions were prepared with cell densities adjusted to 1×10^7 cells/mL. The mice to be treated were taken out and anesthetized by intraperitoneal injection of 2% sodium pentobarbital at a dose of 45 μL/20 g. After about 5 minutes, the mice began to enter a quiet state. White gauze was spread on a mouse board, the mice were placed in left lying position, the abdominal hair of the mice was shaved, and the abdominal side was disinfected from the neck to the groin with alcohol cotton pads. The skin was cut open 1-2 cm below the lower edge of the left costal arch to expose the abdominal wall muscles. The abdominal wall muscles were pulled with pointed forceps to avoid the spleen in the abdominal cavity. The abdominal wall muscles were cut open to expose the internal organs. The pancreas was gently pulled with circular forceps, and the spleen was pulled out. […]

[2] = molecular target: T1, binding of GREM1 to ACVR1C; assay: Pull-down experiment: Fc-tagged ACVR1C-ECD and his-tagged full-length GREM1 with ACVR1C peptide; conditions: purified Fc-tagged ACVR1C-ECD (AA 1-113) and his-tagged full-length GREM1; FIG. 11b
Protocol: The Fc-tagged ACVR1C extracellular domain (ACVR1C-ECD, AA 1-113) and his-tagged full-length GREM1 were purified, and ACVR1C peptide (with an amino acid sequence of TECCFTDFCNNITLHLPTA, SEQ ID NO: 7) which blocked the binding of ACVR1C to GREM1 ligand thereof was synthesized (FIG. 11a). The Pull-down experiment was performed.

[3] = molecular target: T2, GREM1; assay: co-IP in HCT116 cells
Source text: To further describe the binding sites between GREM1 and ACVR1C, a truncated GREM1 and ACVR1C extracellular domain (ACVR1C-ECD) is constructed.

Molecule | inhibition of liver metastasis of colorectal cancer cells (bioluminescence imaging) ([1]; FIG. 12) | inhibition of liver metastasis of colorectal cancer cells (bioluminescence imaging) ([1]; FIG. 12, listed as polypeptide) | inhibition of the binding of GREM1 to ACVR1C (pull-down) [2] | binding result [3]
TECCFTDFCNNITLHLPTA [ACVR1C peptide] | significantly lower than that in a control group | significantly inhibits liver metastasis of colorectal cancer cells; also recorded: significantly inhibit the colorectal cancer metastasis | competitively inhibited the binding of GREM1 to ACVR1C; also recorded: can interfere or block the binding of GREM1 to ACVR1C | 
B1 |  |  |  | no binding
